According to PubChem BioAssay AID248 (DTP/NCI, 2004):
“And” between values parts separate entries of the source, which are not always exact repeats. Equal values may be shown once. Toxic doses and inconclusive results are not listed. No stated cut-off is given here; in the data, active means T/C of 150% or more; inactive means T/C below 125%.

Tested on: L1210 leukemia ip in BDF1 mice, survival T/C
Test: NCI In Vivo Anticancer Drug Screen. Data for tumor model L1210 Leukemia (intraperitoneal) in B6D2F1 (BDF1) mice
Conditions: endpoint: mean survival time, higher = longer survival
Summary of the method: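 Tumor cells were implanted, animals were treated, and survival was followed. The result divides the treated measurement by the vehicle-control measurement.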

[1] = dose: 100.0 mg/kg/injection, schedule: Q01DX001 (ip), vehicle: Klucel (hydroxypropylcellulose) (HPC)
[2] = dose: 200.0 mg/kg/injection, schedule: Q01DX001 (ip), vehicle: Klucel (hydroxypropylcellulose) (HPC)
[3] = dose: 100.0 mg/kg/injection, schedule: Q01DX001 (ip), vehicle: carboxymethylcellulose (CMC)
[4] = dose: 200.0 mg/kg/injection, schedule: Q01DX001 (ip), vehicle: carboxymethylcellulose (CMC)
[5] = dose: 400.0 mg/kg/injection, schedule: Q01DX001 (ip), vehicle: carboxymethylcellulose (CMC)
[6] = dose: 100.0 mg/kg/injection, schedule: Q01DX009 (ip), vehicle: saline with Tween-80
[7] = dose: 200.0 mg/kg/injection, schedule: Q01DX009 (ip), vehicle: saline with Tween-80

Measured: T/C

Nc1c(Cl)cc(I)cc1C(=O)O
inactive: dose: 100.0 mg/kg/injection, schedule: Q04DX002 (ip), vehicle: Klucel (hydroxypropylcellulose) (HPC) 94 % of control | dose: 200.0 mg/kg/injection, schedule: Q04DX002 (ip), vehicle: Klucel (hydroxypropylcellulose) (HPC) 102 % of control | dose: 400.0 mg/kg/injection, schedule: Q04DX002 (ip), vehicle: Klucel (hydroxypropylcellulose) (HPC) 102 % of control

N#Cc1cccc(NC(=O)COc2cccc(Cl)c2)c1
inactive: [1] 94 % of control | [2] 87 % of control | dose: 400.0 mg/kg/injection, schedule: Q01DX001 (ip), vehicle: Klucel (hydroxypropylcellulose) (HPC) 90 % of control

Cc1ccc(N=Nc2c(O)ccc3ccccc23)cc1
inactive: dose: 50.0 mg/kg/injection, schedule: Q01DX001 (ip), vehicle: carboxymethylcellulose (CMC) 91 % of control | [3] 91 % of control | [4] 91 % of control | [5] 91 % of control

CN1CNC(C=O)(CCc2ccc(Cl)cc2)C1 (stereo not given)
inactive: dose: 200.0 mg/kg/injection, schedule: Q01DX001 (ip), vehicle: other 87 % of control | dose: 400.0 mg/kg/injection, schedule: Q01DX001 (ip), vehicle: other 98 % of control

O=C1OC(=O)C2CC(Cl)C(Cl)CC12 (stereo not given)
inactive: [6] 89 % of control | dose: 100.0 mg/kg/injection, schedule: Q04DX003 (ip), vehicle: saline with Tween-80 89 % of control | [7] 86 % of control | dose: 200.0 mg/kg/injection, schedule: Q04DX003 (ip), vehicle: saline with Tween-80 100 % of control | dose: 400.0 mg/kg/injection, schedule: Q01DX009 (ip), vehicle: saline with Tween-80 89 % of control | dose: 400.0 mg/kg/injection, schedule: Q04DX003 (ip), vehicle: saline with Tween-80 104 % of control

CCCCCCCCCCCCC(CCCCCCCCCCCC)C1CCCCC1
inactive: dose: 100.0 mg/kg/injection, schedule: Q01DX001 (ip), vehicle: saline 102 % of control | dose: 200.0 mg/kg/injection, schedule: Q01DX001 (ip), vehicle: saline 104 % of control | dose: 400.0 mg/kg/injection, schedule: Q01DX001 (ip), vehicle: saline 95 % of control

N=c1c2[nH]cnc2ncn1O
inactive: [3] 89 % of control | [4] 94 % of control | [5] 100 % of control

Cc1ccc([I+]c2ccc(C)c(C)c2)cc1C
inactive: dose: 1.0 mg/kg/injection, schedule: Q01DX001 (ip), vehicle: acetone 102 % of control | dose: 2.0 mg/kg/injection, schedule: Q01DX001 (ip), vehicle: acetone 98 % of control | dose: 4.0 mg/kg/injection, schedule: Q01DX001 (ip), vehicle: acetone 105 % of control | dose: 5.9 mg/kg/injection, schedule: Q01DX001 (ip), vehicle: saline 103 % of control | dose: 9.0 mg/kg/injection, schedule: Q01DX001 (ip), vehicle: saline 97 % of control | dose: 13.0 mg/kg/injection, schedule: Q01DX001 (ip), vehicle: saline 100 % of control | dose: 19.0 mg/kg/injection, schedule: Q01DX001 (ip), vehicle: saline 102 % of control | dose: 29.0 mg/kg/injection, schedule: Q01DX001 (ip), vehicle: saline 101 % of control | dose: 45.0 mg/kg/injection, schedule: Q01DX001 (ip), vehicle: saline 98 % of control | dose: 65.0 mg/kg/injection, schedule: Q01DX001 (ip), vehicle: saline with Tween-80 96 % of control | dose: 100.0 mg/kg/injection, schedule: Q01DX001 (ip), vehicle: saline with Tween-80 97 % of control | dose: 150.0 mg/kg/injection, schedule: Q01DX001 (ip), vehicle: saline with Tween-80 94 % of control | dose: 225.0 mg/kg/injection, schedule: Q01DX001 (ip), vehicle: saline with Tween-80 102 % of control | dose: 340.0 mg/kg/injection, schedule: Q01DX001 (ip), vehicle: saline with Tween-80 96 % of control

CC(C)(C)c1cccc(C(C)(C)C)c1OC(=O)NS(=O)(=O)c1ccccc1
inactive: dose: 12.5 mg/kg/injection, schedule: Q01DX009 (ip), vehicle: acetone 98 % of control | dose: 25.0 mg/kg/injection, schedule: Q01DX009 (ip), vehicle: acetone 94 % of control | dose: 50.0 mg/kg/injection, schedule: Q01DX009 (ip), vehicle: acetone 91 % of control | dose: 75.0 mg/kg/injection, schedule: Q01DX009 (ip), vehicle: Klucel (hydroxypropylcellulose) (HPC) 96 % of control | dose: 115.0 mg/kg/injection, schedule: Q01DX009 (ip), vehicle: Klucel (hydroxypropylcellulose) (HPC) 98 % of control

Cc1cc(=O)c2cc(N(C)C)ccc2[nH]1
inactive: dose: 100.0 mg/kg/injection, schedule: Q01DX009 (ip), vehicle: water 100 % of control | dose: 100.0 mg/kg/injection, schedule: Q04DX003 (ip), vehicle: water 115 % of control | dose: 200.0 mg/kg/injection, schedule: Q01DX009 (ip), vehicle: water 105 % of control | dose: 200.0 mg/kg/injection, schedule: Q04DX003 (ip), vehicle: water 116 % of control | dose: 400.0 mg/kg/injection, schedule: Q01DX009 (ip), vehicle: water 104 % of control | dose: 400.0 mg/kg/injection, schedule: Q04DX003 (ip), vehicle: water 116 % of control

ClC1(Cl)C2CC3C4C=CC(C4)C3C21 (stereo not given)
inactive: [1] 108 % of control | [2] 100 % of control

O=C(O)c1ccc(OCC(=O)c2ccccc2)cc1
inactive: [6] 98 % of control | [7] 89 % of control

Cc1cc2nc(CN)[nH]c2cc1C
inactive: dose: 50.0 mg/kg/injection, schedule: Q01DX009 (ip), vehicle: saline 98 % of control | dose: 100.0 mg/kg/injection, schedule: Q01DX009 (ip), vehicle: saline 98 % of control | dose: 200.0 mg/kg/injection, schedule: Q01DX009 (ip), vehicle: saline 93 % of control

O=Cc1ccc(O)c(O)c1
inactive: dose: 100.0 mg/kg/injection, schedule: Q01DX Z (ip), vehicle: other 101 % of control and 102 % of control | dose: 150.0 mg/kg/injection, schedule: Q01DX Z (ip), vehicle: other 101 % of control and 107 % of control | dose: 160.0 mg/kg/injection, schedule: Q01DX Z (ip), vehicle: carboxymethylcellulose (CMC) 115 % of control | dose: 160.0 mg/kg/injection, schedule: Q01DX Z (ip), vehicle: other 122 % of control | dose: 225.0 mg/kg/injection, schedule: Q01DX Z (ip), vehicle: other 98 % of control and 120 % of control | dose: 240.0 mg/kg/injection, schedule: Q01DX Z (ip), vehicle: carboxymethylcellulose (CMC) 122 % of control | dose: 340.0 mg/kg/injection, schedule: Q01DX Z (ip), vehicle: other 101 % of control and 107 % of control | dose: 510.0 mg/kg/injection, schedule: Q01DX Z (ip), vehicle: other 113 % of control | dose: 540.0 mg/kg/injection, schedule: Q01DX Z (ip), vehicle: other 93 % of control | dose: 750.0 mg/kg/injection, schedule: Q01DX Z (ip), vehicle: other 113 % of control

CCCCN(CCCC)CC(=O)Nc1ccc(C(=O)OCC(C)C)cc1
inactive: dose: 20.0 mg/kg/injection, schedule: Q01DX Z (ip), vehicle: saline 97 % of control | dose: 30.0 mg/kg/injection, schedule: Q01DX Z (ip), vehicle: saline 98 % of control | dose: 45.0 mg/kg/injection, schedule: Q01DX Z (ip), vehicle: saline 106 % of control | dose: 68.0 mg/kg/injection, schedule: Q01DX Z (ip), vehicle: saline 97 % of control
